This note sets out measurements from patent publication US7919529B2, “δ-amino-γ-hydroxy-ω-aryl-alkanoic acid amides” (Novartis AG, priority 2003, dated 2011).

The target in the test is T1, Recombinant human renin (Homo sapiens, UniProt P00797).
T1 construct: made in house; host or cells: Chinese Hamster Ovary cells
T1 sequence (P00797 67-406): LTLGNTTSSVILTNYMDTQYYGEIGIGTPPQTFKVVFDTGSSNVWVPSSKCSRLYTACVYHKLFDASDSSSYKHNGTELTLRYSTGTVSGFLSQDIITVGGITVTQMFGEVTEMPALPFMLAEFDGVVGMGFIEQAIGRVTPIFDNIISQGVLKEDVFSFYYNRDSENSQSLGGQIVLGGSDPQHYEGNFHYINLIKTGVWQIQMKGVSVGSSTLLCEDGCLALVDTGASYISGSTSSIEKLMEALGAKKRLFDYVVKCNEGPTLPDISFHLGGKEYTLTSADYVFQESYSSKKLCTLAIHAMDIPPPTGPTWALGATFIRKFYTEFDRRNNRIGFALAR
Kind of test: FRET assay of renin inhibition. In kind it is biochemical. Here is the method:
Recombinant human renin (expressed in Chinese Hamster Ovary cells and purified using standard methods) at 4 nM concentration is incubated with test compound at various concentrations for 1 h at RT in 0.1 M Tris-HCl buffer, pH 7.4, containing 0.05 M NaCl, 0.5 mM EDTA and 0.05% CHAPS. Synthetic peptide substrate Arg-Glu(EDANS)-Ile-His-Pro-Phe-His-Leu-Val-Ile_His_Thr-Lys(DABCYL)-Arg9 is added to a final concentration of 2 μM and increase in fluorescence is recorded at an excitation wave-length of 340 nm and at an emission wave-length of 485 nm in a microplate spectro-fluorimeter. IC50 values are calculated from percentage of inhibition of renin activity as a function of test compound concentration (Fluorescence Resonance Energy Transfer, FRET, assay).

For orientation: IC50 means the midpoint of a concentration-inhibition curve. Take `COCCCOc1cc(C[C@@H](C[C@H](N)[C@@H](O)C[C@H](C(=O)N[C@@H](C)C2CCCCC2)C(C)C)C(C)C)ccc1OC` [Example 29, (2S,4S,5S,7S)-5-Amino-4-hydroxy-2-isopropyl-7-[4-methoxy-3-(3-methoxy-propoxy)-benzyl]-8-methyl-nonanoic acid ((S)-1-cyclohexyl-ethyl)-amide]: the IC50 was around 0.3 nM.
